Source: paper PMC7665585, “Antidepressive effect of an inward rectifier K^+ channel blocker peptide, tertiapin-RQ” (PLoS ONE, 2020)
Bridge positions count the residues as written; N and C are the ends. Peptide text beside a SMILES is read from it.

Each compound was assayed against T1, rat ROMK (Rattus norvegicus, UniProt P35560) (assay: Whole-cell patch-clamp of ROMK currents in 208–4 cells). Details: blockade at 1 μM estimated from fitted Hill curve (four parameters), whole-cell conductance, n = 3–6, read-out: Activity (ROMK channel blocking activity, percentage of blockade at 1 μM).
T1 construct: expressed in transfected cells; host or cells: 293T cell line 208-4 (lentiviral transduction, GFP coexpressed)
T1 sequence (P35560 1-391): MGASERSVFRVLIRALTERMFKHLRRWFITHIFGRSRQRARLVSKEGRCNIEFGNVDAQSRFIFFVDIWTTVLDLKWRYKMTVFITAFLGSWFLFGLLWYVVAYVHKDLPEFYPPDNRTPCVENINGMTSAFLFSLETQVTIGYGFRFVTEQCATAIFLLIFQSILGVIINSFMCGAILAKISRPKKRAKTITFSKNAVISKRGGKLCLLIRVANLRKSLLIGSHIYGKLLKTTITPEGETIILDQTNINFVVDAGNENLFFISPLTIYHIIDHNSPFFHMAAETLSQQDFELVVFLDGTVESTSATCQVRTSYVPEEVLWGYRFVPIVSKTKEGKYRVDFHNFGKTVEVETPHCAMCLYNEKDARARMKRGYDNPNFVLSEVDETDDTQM
Assay type: cell-based
Description: The cDNAs for rat ROMK and mouse GIRK1, 2, and 4 were generously donated by Drs Mikio Hayashi (Kansai Medical University) and David Weaver (Vanderbilt University). The ROMK channels were stably expressed by a cell line, 208–4, which was transduced with lentiviral vectors coexpressing the channel and green fluorescent protein (GFP) as described previously. The GIRK genes, cloned in a pCMV6 plasmid (Origene Technologies Inc, Rockville, MD), were transiently expressed in 293T cells with calcium phosphate transfection. GIRK channel currents were recorded 24 h after transfection.
Cells grown on small cover glasses (3 × 18 mm) were placed in a recording chamber. Whole-cell currents were recorded in Tyrode solution using an Axopatch 200B amplifier (Axon Instruments, Foster City, CA) at 25°C. Tyrode solution contained (in mM): NaCl 140, KCl 5.4, NaH2PO4 0.33, CaCl2 2, MgCl2 1, HEPES 5, and glucose 5.5 (pH 7.4 adjusted with NaOH). High K^+ Tyrode solution (KCL 50 mM, NaCl 95 mM, and others were the same as standard Tyrode solution) was used for the recording of GIRK channels. Patch pipettes pulled from borosilicate glass (Narishige, Tokyo, Japan) were filled with an internal solution containing (in mM): K-aspartate 66, KCl 71.5, KH2PO4 1, EGTA 5, HEPES 5, and MgATP 3 (pH 7.4 adjusted with KOH). Recordings were digitized at 10 kHz, and low-pass filtered at 2 kHz. ROMK, Kir2.1, and GIRK currents were evoked with step pulses of 400 msec from -150 mV to 10 mV in 10 mV increments from a holding potential of -70 mV. Whole-cell currents were recorded 60 sec after the peptide application and those from 100 to 300 msec of the step pulses were averaged. Liquid junction potential or capacitive transient was not corrected or compensated. Whole-cell conductance was calculated as the slope of the current-voltage (I-V) relationship from -140 mV to -100 mV and normalized to the initial value (0 μM TPN), in which BaCl2-resistant current was subtracted and indicted as a percentage.
`CC[C@H](C)[C@@H]1NC(=O)[C@H](CCCNC(=N)N)NC(=O)[C@H](CCCNC(=N)N)NC(=O)[C@H](CC(N)=O)NC(=O)[C@@H](N)CSSC[C@@H](C(N)=O)NC(=O)[C@H](CCC(N)=O)NC(=O)[C@H](Cc2c[nH]cn2)NC(=O)[C@@H]2CCCN2C(=O)[C@H]([C@@H](C)CC)NC1=O` [Peptide 35, TPN-RQ 5–14] (H-CNRRIIPHQC-NH2; disulfide 1-10) was tested, and the inhibition at 1 µM was under 20%. `CC[C@H](C)[C@@H]1NC(=O)[C@H](CCCNC(=N)N)NC(=O)[C@H](CCCNC(=N)N)NC(=O)[C@H](CC(N)=O)NC(=O)[C@@H](N)CSSC[C@@H](C(N)=O)NC(=O)[C@H](CCC(N)=O)NC(=O)[C@H](CCCCN)NC(=O)[C@@H]2CCCN2C(=O)[C@H]([C@@H](C)CC)NC1=O` [Peptide 36, TPN-RQ 5-14(H12K)] (H-CNRRIIPKQC-NH2; disulfide 1-10) was tested, and the inhibition at 1 µM was under 20%. `CC[C@H](C)[C@@H]1NC(=O)[C@H](CCCNC(=N)N)NC(=O)[C@H](CCCNC(=N)N)NC(=O)[C@H](CC(N)=O)NC(=O)[C@@H](N)CSSC[C@@H](C(=O)N[C@@H](Cc2c[nH]c3ccccc23)C(=O)N[C@@H](CCCCN)C(=O)N[C@@H](CCCCN)C(N)=O)NC(=O)[C@H](CCC(N)=O)NC(=O)[C@H](Cc2c[nH]cn2)NC(=O)[C@@H]2CCCN2C(=O)[C@H]([C@@H](C)CC)NC1=O` [Peptide 37, TPN-RQ 5–17] (H-CNRRIIPHQCWKK-NH2; disulfide 1-10) gave an inhibition at 1 µM of under 20%. `CC[C@H](C)[C@@H]1NC(=O)[C@H](CCCNC(=N)N)NC(=O)[C@H](CCCNC(=N)N)NC(=O)[C@H](CC(N)=O)NC(=O)[C@@H](N)CSSC[C@@H](C(=O)N[C@@H](Cc2c[nH]c3ccccc23)C(=O)N[C@@H](CCCCN)C(=O)N[C@@H](CCCCN)C(N)=O)NC(=O)[C@H](CCC(N)=O)NC(=O)[C@H](CCCCN)NC(=O)[C@@H]2CCCN2C(=O)[C@H]([C@@H](C)CC)NC1=O` [Peptide 38, TPN-RQ 5-17(H12K)] (H-CNRRIIPKQCWKK-NH2; disulfide 1-10) showed an inhibition at 1 µM of under 20%. `CC[C@H](C)[C@@H]1NC(=O)[C@H](CCCNC(=N)N)NC(=O)[C@H](CCCNC(=N)N)NC(=O)[C@H](CC(N)=O)NC(=O)[C@@H](NC(=O)[C@@H](N)CC(N)=O)CSSC[C@@H](C(=O)N[C@@H](Cc2c[nH]c3ccccc23)C(=O)N[C@@H](CCCCN)C(=O)N[C@@H](CCCCN)C(N)=O)NC(=O)[C@H](CCC(N)=O)NC(=O)[C@H](Cc2c[nH]cn2)NC(=O)[C@@H]2CCCN2C(=O)[C@H]([C@@H](C)CC)NC1=O` [Peptide 39, TPN-RQ 4–17] (H-NCNRRIIPHQCWKK-NH2; disulfide 2-11) showed an inhibition at 1 µM of under 20%. `CC[C@H](C)[C@@H]1NC(=O)[C@H](CCCNC(=N)N)NC(=O)[C@H](CCCNC(=N)N)NC(=O)[C@H](CC(N)=O)NC(=O)[C@@H](NC(=O)[C@@H](N)CC(N)=O)CSSC[C@@H](C(=O)N[C@@H](Cc2c[nH]c3ccccc23)C(=O)N[C@@H](CCCCN)C(=O)N[C@@H](CCCCN)C(N)=O)NC(=O)[C@H](CCC(N)=O)NC(=O)[C@H](CCCCN)NC(=O)[C@@H]2CCCN2C(=O)[C@H]([C@@H](C)CC)NC1=O` [Peptide 40, TPN-RQ 4-17(H12K)] (H-NCNRRIIPKQCWKK-NH2; disulfide 2-11) gave an inhibition at 1 µM of under 20%. `CC[C@H](C)[C@@H]1NC(=O)[C@H](CCCNC(=N)N)NC(=O)[C@H](CCCNC(=N)N)NC(=O)[C@H](CC(N)=O)NC(=O)[C@H](CO)NC(=O)[C@H](CC(N)=O)NC(=O)[C@@H](N)CSSC[C@@H](C(=O)N[C@@H](Cc2c[nH]c3ccccc23)C(=O)N[C@@H](CCCCN)C(N)=O)NC(=O)[C@H](CCC(N)=O)NC(=O)[C@H](Cc2c[nH]cn2)NC(=O)[C@@H]2CCCN2C(=O)[C@H]([C@@H](C)CC)NC1=O` [Peptide 41, TPN-RQ 3-16(C5S)] (H-CNSNRRIIPHQCWK-NH2; disulfide 1-12) was tested, and the inhibition at 1 µM was under 20%. `CC[C@H](C)[C@@H]1NC(=O)[C@H](CCCNC(=N)N)NC(=O)[C@H](CCCNC(=N)N)NC(=O)[C@H](CC(N)=O)NC(=O)[C@H](CO)NC(=O)[C@H](CC(N)=O)NC(=O)[C@@H](N)CSSC[C@@H](C(=O)N[C@@H](Cc2c[nH]c3ccccc23)C(=O)N[C@@H](CCCCN)C(N)=O)NC(=O)[C@H](CCC(N)=O)NC(=O)[C@H](CCCCN)NC(=O)[C@@H]2CCCN2C(=O)[C@H]([C@@H](C)CC)NC1=O` [Peptide 42, TPN-RQ 3-16(C5S/H12K)] (H-CNSNRRIIPKQCWK-NH2; disulfide 1-12) was tested, and the inhibition at 1 µM was under 20%. With `CC[C@H](C)[C@@H]1NC(=O)[C@H](CCCNC(=N)N)NC(=O)[C@H](CCCNC(=N)N)NC(=O)[C@H](CC(N)=O)NC(=O)[C@H](CO)NC(=O)[C@H](CC(N)=O)NC(=O)[C@@H](NC(=O)[C@@H](N)CCC(N)=O)CSSC[C@@H](C(=O)N[C@@H](Cc2c[nH]c3ccccc23)C(=O)N[C@@H](CCCCN)C(N)=O)NC(=O)[C@H](CCC(N)=O)NC(=O)[C@H](Cc2c[nH]cn2)NC(=O)[C@@H]2CCCN2C(=O)[C@H]([C@@H](C)CC)NC1=O` [Peptide 43, Q + TPN-RQ 3-16(C5S)] (H-QCNSNRRIIPHQCWK-NH2; disulfide 2-13) the inhibition at 1 µM was under 20%. In the case of `CC[C@H](C)[C@@H]1NC(=O)[C@H](CCCNC(=N)N)NC(=O)[C@H](CCCNC(=N)N)NC(=O)[C@H](CC(N)=O)NC(=O)[C@H](CO)NC(=O)[C@H](CC(N)=O)NC(=O)[C@@H](NC(=O)[C@@H](N)CCC(N)=O)CSSC[C@@H](C(=O)N[C@@H](Cc2c[nH]c3ccccc23)C(=O)N[C@@H](CCCCN)C(N)=O)NC(=O)[C@H](CCC(N)=O)NC(=O)[C@H](CCCCN)NC(=O)[C@@H]2CCCN2C(=O)[C@H]([C@@H](C)CC)NC1=O` [Peptide 44, Q + TPN-RQ 3-16(C5S/H12K)] (H-QCNSNRRIIPKQCWK-NH2; disulfide 2-13), the inhibition at 1 µM is reported as under 20%. Work on `CC[C@H](C)[C@@H]1NC(=O)[C@H](CCCNC(=N)N)NC(=O)[C@H](CC(N)=O)NC(=O)[C@@H](NC(=O)[C@H](CC(N)=O)NC(=O)[C@H](CO)NC(=O)[C@H](CC(C)C)NC(=O)[C@H](C)N)CSSC[C@@H](C(=O)NCC(=O)N[C@@H](CCCCN)C(=O)N[C@@H](CCCCN)C(N)=O)NC(=O)[C@H](CCCCN)NC(=O)[C@H](CCCCN)NC(=O)[C@H](Cc2c[nH]c3ccccc23)NC(=O)[C@H](CO)NC(=O)[C@H](CCC(N)=O)NC(=O)[C@H](Cc2c[nH]cn2)NC(=O)[C@@H]2CCCN2C(=O)[C@H]([C@@H](C)CC)NC(=O)[C@H]([C@@H](C)CC)NC1=O` [Peptide 49, TPN-Q(C3S/C14S)] (H-ALSNCNRIIIPHQSWKKCGKK-NH2; disulfide 5-18) yielded an inhibition at 1 µM of under 20%. `CC[C@H](C)[C@@H]1NC(=O)[C@H](CCCNC(=N)N)NC(=O)[C@H](CCCNC(=N)N)NC(=O)[C@H](CC(N)=O)NC(=O)[C@@H](NC(=O)[C@H](CC(N)=O)NC(=O)[C@H](CO)NC(=O)[C@H](CC(C)C)NC(=O)[C@H](C)N)CSSC[C@@H](C(=O)NCC(=O)N[C@@H](CCCCN)C(=O)N[C@@H](CCCCN)C(N)=O)NC(=O)[C@H](CCCCN)NC(=O)[C@H](CCCCN)NC(=O)[C@H](Cc2c[nH]c3ccccc23)NC(=O)[C@H](CO)NC(=O)[C@H](CCC(N)=O)NC(=O)[C@H](Cc2c[nH]cn2)NC(=O)[C@@H]2CCCN2C(=O)[C@H]([C@@H](C)CC)NC1=O` [Peptide 50, TPN-RQ(C3S/C14S)] (H-ALSNCNRRIIPHQSWKKCGKK-NH2; disulfide 5-18) was tested, and the inhibition at 1 µM was under 20%. `CC[C@H](C)[C@@H]1NC(=O)[C@H](CCCNC(=N)N)NC(=O)[C@H](CC(N)=O)NC(=O)[C@@H]2CSSC[C@@H](C(=O)NCC(=O)N[C@@H](CCCCN)C(=O)N[C@@H](CCCCN)C(N)=O)NC(=O)[C@H](CCCCN)NC(=O)[C@H](CCCCN)NC(=O)[C@H](Cc3c[nH]c4ccccc34)NC(=O)[C@H](CSSC[C@H](NC(=O)[C@H](CC(C)C)NC(=O)[C@H](C)N)C(=O)N[C@@H](CC(N)=O)C(=O)N2)NC(=O)[C@H](CCC(N)=O)NC(=O)[C@H](Cc2c[nH]cn2)NC(=O)[C@@H]2CCCN2C(=O)[C@H]([C@@H](C)CC)NC1=O` [Peptide 51, TPN-RQ(Δ8R)] (H-ALCNCNRIIPHQCWKKCGKK-NH2; disulfide 3-13, 5-17) showed an inhibition at 1 µM of 40 to 60%.
